Data as given in publication PMC11040665, “Aminothiazolone Inhibitors Disrupt the Protein–RNA Interaction of METTL16 and Modulate the m^6A RNA Modification” (JACS Au, 2024).

How the values were obtained:
[1] = tested on: MAT2A mRNA splicing in MDA-MB-231 cells; assay: MAT2A splicing by RT-qPCR, MDA-MB-231; assay type: cell-based, human; conditions: 50 μM, 24 h, 45 potassium salt used
Procedure: (§1) MDA-MB-231 cells and A549 cells were seeded into 6-well plates at 70% confluency and cultured overnight. Afterward they were treated with compound 45 potassium salt for 24 h. After the compound treatment, the cell culture medium was discarded and cells were washed with DPBS three times. The total RNA was then purified using RNeasy Mini Kit (Qiagen 74106) following the manufacturer’s protocol.
(§2) The reverse transcription was performed by using High-Capacity cDNA Reverse Transcription Kits (Thermo Fisher 4368814) with 500 ng of total RNA. qPCR was performed using PowerUp SYBR Green Master Mix (Thermo Fisher, A25742) with a 10 μL volume. The cycling was performed using Bio-Rad CFX96 Real-Time PCR Detection System following the standard cycling mode (primer Tm ≥ 60 °C) on the manufacturer’s protocol. The p value was calculated using GraphPad Prism software’s one-way ANOVA analysis.

[2] = tested on: total RNA m^6A level in A549 cells; assay: Total RNA m6A level by dot blot, A549; assay type: cell-based, human; conditions: 50 μM, 24 h, 45 potassium salt used
Procedure: as §1
(§3) Concentrations of the total RNA were measured by NanoDrop and each sample was calibrated to the same concentration using RNase-free water. RNA samples were heated at 95 °C for 3 min and immediately chilled on ice to disrupt the secondary structures. The total RNA (1 μg) was dropped onto a positively charged nylon membrane (Invitrogen, AM10102). The membrane with RNA side up was immediately transferred to the UVP Cross-linker (Analytik Jena) with […] bulb and cross-linked under the UV light for 5 min two times, then the membrane was washed in TBST (1xTBS with 0.1% Tween 20) for 10 min at room temperature and blocked with 5% skimmed milk in TBST for 1 h at room temperature. The membrane was incubated with the anti-m^6A antibody (Synaptic systems 202003, 1 μg/mL) overnight at 4 °C. […] The membrane was further washed with TBST and detected with the Amersham ECL Prime Western Blotting Detection Reagent. […]

His-tagged METTL16 MTD = target: T1, His-tagged METTL16 MTD (Homo sapiens, UniProt Q86W50); assay: switchSENSE biosensor assay; assay type: binding; conditions: potassium salt of compound 45 was used
T1 construct: His-tagged METTL16 (1–291) was purified using the same protocol, without protease cleavage; made in house; host or cells: E. coli Rosetta (DE3)
T1 sequence (Q86W50 1-291): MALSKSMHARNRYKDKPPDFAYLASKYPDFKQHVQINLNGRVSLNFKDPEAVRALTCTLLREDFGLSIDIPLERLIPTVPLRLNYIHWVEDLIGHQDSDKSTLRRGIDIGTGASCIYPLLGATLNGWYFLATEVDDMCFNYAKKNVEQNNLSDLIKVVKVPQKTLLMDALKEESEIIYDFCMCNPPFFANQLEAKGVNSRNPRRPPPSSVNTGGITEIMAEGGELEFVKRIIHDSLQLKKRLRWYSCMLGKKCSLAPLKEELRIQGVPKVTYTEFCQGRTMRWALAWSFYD
Procedure: The biosensor assay was performed using a heliX instrument (Dynamic Biosensors) with a heliX adapter chip. The His-capture kit (HK-NTA-1) was used to functionalize and regenerate the chip. 100 nM His-tagged METTL16 MTD was captured to the surface and regenerated with imidazole solution (250 mM in 10 mM Tris, pH 7.4, 140 mM NaCl, 0.05% Tween 20, 50 μM EDTA, 50 μM EGTA) each time after measurement. PE140 buffer was used as the running buffer (10 mM Na2HPO4/NaH2PO4, pH 7.4, 140 mM NaCl, 0.05% Tween 20, 50 μM EDTA) and 0.2% DMSO was used as concertation 0. The association and dissociation flow rates were 200 μL/min, with an association time of 90 s and a dissociation time of 120 s. Data were analyzed using heliOS using the ‘kinetics mono- & biphasic-free amplitudes fitting’ mode.

[3] = tested on: MAT2A mRNA splicing in A549 cells; assay: MAT2A splicing by RT-qPCR, A549; assay type: cell-based, human; conditions: 50 μM, 24 h, 45 potassium salt used
Procedure: as §1, §2
Figure S10. Cellular evaluation of selected METTL16 inhibitors. (A)Suppression on cell viability in A549 cells.
Data are shown as mean ± SEM, n=3. (B) Suppression on cell viability in HCT116 cells. Data are shown as mean ± SEM, n=3. (C) Spliced MAT2A in A549 cells increased after treated 24 h with indicated dose of 45. Data are shown as mean ± SEM, n=4. **P<0.01, ns P>0.05. (D) Total RNA m 6A level in A549 cells after treated 24 h with 45. 45 potassium salt was used for MAT2A splicing and total RNA m 6A level evaluation. […]

[4] = tested on: total m^6A level in MDA-MB-231 cells; assay: Total RNA m6A level by dot blot, MDA-MB-231; assay type: cell-based, human; conditions: 50 μM, 24 h, 45 potassium salt used
Procedure: as §1, §3

METTL16 MTD (1-291) = target: T2, METTL16 MTD (1-291) (Homo sapiens, UniProt Q86W50); assay: Isothermal titration calorimetry (ITC); assay type: binding; conditions: 700 μM METTL16 (1-291) titrated into 50 μM compound, 25 °C
T2 construct: METTL16 MTD (1–291) was subcloned to pOPINB plasmid; His tag followed by HRV 3C cleavage site (N, cleaved yes); made in house; host or cells: E. coli Rosetta (DE3)
T2 sequence (Q86W50 1-291): T1 sequence (Q86W50 1-291)
Procedure: ITC was performed by using the MicroCal PEAQ-ITC system (Malvern) at 25 °C. METTL16 MTD protein was directly used after purification. 700 μM protein in SEC buffer (20 mM pH 7.5, 200 mM NaCl, 0.5 mM TCEP,2% v/v glycerol) supplemented with 0.5% DMSO were loaded to the syringe, 50 μM compound in SEC buffer (final 0.5%DMSO) was loaded to the cell, both samples were adjusted to 25 °C and degassed before loading. The experiment was carried out using the reference power of 10, with 19 injections. Data were analyzed using the MicroCal PEAQ-ITC Analysis Software.
Figure S5. Compound Ia as a negative control for DSF assay ,T m values of tested compounds and ITC result of […]
47. […] Data are shown as mean ± SEM, n=4. (B) EMSA assay result of compound Ia. (C) Melting curve of METTL16 in the DSF assay treated with different concentrations of Ia. Data are shown as mean ± SD, n=2. (D) T m values of DMSO control and compound Ia, 27,45,46, and 47, assay was conducted with two biological repeats in duplicate. Data are shown as mean ± SEM, n=4. (E) ITC validation of compound 47, using 700 μM METTL16 (1-291) protein to titrate 50 μM compound 47.
(1 picture or pasted object on this page, not shown here)

METTL16 MTD = target: T3, METTL16 MTD (Homo sapiens, UniProt Q86W50); assay: Michaelis–Menten kinetics study, in vitro methylation assay at different SAM concentrations; assay type: biochemical; conditions: SAM from 75 µM, two-fold dilution
T3 construct: METTL16 MTD (1–291) was subcloned to pOPINB plasmid; His tag followed by HRV 3C cleavage site (N, cleaved yes); made in house; host or cells: E. coli Rosetta (DE3)
T3 sequence (Q86W50 1-291): T1 sequence (Q86W50 1-291)

## CN1C(=O)C(=C2SC(NS(=O)(=O)c3ccc(C(=O)O)cc3)=NC2=O)c2cc(Br)ccc21 [Compound 45]
[1]
  MAT2A splicing, in words: promoted MAT2A splicing
[2]
  total m^6A RNA level, in words: increased the total m^6A mRNA levels
His-tagged METTL16 MTD
  KA, biosensor assay: 7.43 ± 0.84E+5 M^-1
  Kd: 1350 nM
[3]
  MAT2A splicing, in words: promoted MAT2A splicing
[4]
  total m^6A RNA level, in words: increased the total m^6A mRNA levels

## O=C1N=C(NS(=O)(=O)c2ccc(C(=O)O)cc2)SC1=C1C(=O)Nc2ccc(Br)cc21 [Compound 47]
METTL16 MTD (1-291)
  Kd: 5120 nM
His-tagged METTL16 MTD
  KA, biosensor assay: 5.67 ± 0.48E+5 M^-1
  Kd: 1760 nM
METTL16 MTD
  inhibition mode with SAM (Michaelis–Menten kinetics): noncompetitive inhibition mode with SAM
